{"source": "ChEMBL document CHEMBL3046201", "about": "“Insights into the molecular mechanism of tolerance to carboxylic acid amide (CAA) fungicides in Pythium aphanidermatum” (2012)", "key": {"[1]": {"tested_on": "Pythium aphanidermatum", "assay": "Down-regulation of CesA2 gene expression in Pythium aphanidermatum at 200 uM after 0.5 to 4 hr by qRT-PCR method", "format": "functional, organism-based"}, "[2]": {"tested_on": "Saprolegnia monoica", "assay": "Antifungal activity against Saprolegnia monoica assessed as inhibition of mycelial growth at 200 uM after 3 days", "format": "functional", "settings": "72 h, read-out: GI"}, "[3]": {"tested_on": "Pythium aphanidermatum", "assay": "Effect on CesA4 gene expression in Pythium aphanidermatum at 100 uM after 0.5 to 8 hr by qRT-PCR method", "format": "functional, organism-based"}, "[4]": {"tested_on": "Pythium aphanidermatum", "assay": "Antifungal activity against Pythium aphanidermatum assessed as inhibition of mycelial growth at 200 uM after 3 days", "format": "functional", "settings": "72 h, read-out: GI"}, "[5]": {"tested_on": "Pythium aphanidermatum", "assay": "Down-regulation of CesA4 gene expression in Pythium aphanidermatum at 200 uM after 0.5 to 4 hr by qRT-PCR method", "format": "functional, organism-based"}, "[6]": {"tested_on": "Pythium aphanidermatum", "assay": "Down-regulation of CesA3 gene expression in Pythium aphanidermatum at 200 uM after 0.5 to 4 hr by qRT-PCR method", "format": "functional, organism-based"}, "[7]": {"tested_on": "Pythium aphanidermatum", "assay": "Inhibition of germ tube elongation of Pythium aphanidermatum synchronised cytospores at >100 uM after 4 hr", "format": "functional, organism-based"}, "[8]": {"tested_on": "Pythium aphanidermatum", "assay": "Effect on CesA3 gene expression in Pythium aphanidermatum at 200 uM after 8 hr by qRT-PCR method", "format": "functional, organism-based"}, "[9]": {"tested_on": "Pythium aphanidermatum", "assay": "Inhibition of zoospores release of Pythium aphanidermatum synchronised cytospores at 100 uM after 4 hr", "format": "functional, organism-based"}, "[10]": {"tested_on": "Pythium aphanidermatum", "assay": "Effect on CesA2 gene expression in Pythium aphanidermatum at 200 uM after 8 hr by qRT-PCR method", "format": "functional, organism-based"}, "[11]": {"tested_on": "Pythium aphanidermatum", "assay": "Effect on CesA3 gene expression in Pythium aphanidermatum at 100 uM after 0.5 to 8 hr by qRT-PCR method", "format": "functional, organism-based"}, "[12]": {"tested_on": "Pythium aphanidermatum", "assay": "Inhibition of zoospores encystment of Pythium aphanidermatum synchronised cytospores at 100 uM after 4 hr", "format": "functional, organism-based"}, "[13]": {"tested_on": "Pythium aphanidermatum", "assay": "Down-regulation of CesA1 gene expression in Pythium aphanidermatum at 200 uM after 0.5 to 4 hr by qRT-PCR method", "format": "functional, organism-based"}, "[14]": {"tested_on": "Pythium aphanidermatum", "assay": "Effect on PaChs gene expression in Pythium aphanidermatum at 100 uM after 0.5 to 8 hr by qRT-PCR method", "format": "functional, organism-based"}, "[15]": {"tested_on": "Pythium aphanidermatum", "assay": "Effect on PaChs gene expression in Pythium aphanidermatum at 200 uM after 0.5 to 8 hr by qRT-PCR method", "format": "functional, organism-based"}, "[16]": {"tested_on": "Pythium aphanidermatum", "assay": "Inhibition of germ tube elongation of Pythium aphanidermatum synchronised cytospores at 500 uM after 4 hr", "format": "functional"}, "[17]": {"tested_on": "Pythium aphanidermatum", "assay": "Effect on CesA4 gene expression in Pythium aphanidermatum at 200 uM after 8 hr by qRT-PCR method", "format": "functional, organism-based"}, "[18]": {"tested_on": "Pythium aphanidermatum", "assay": "Effect on CesA1 gene expression in Pythium aphanidermatum at 200 uM after 8 hr by qRT-PCR method", "format": "functional, organism-based"}, "[19]": {"tested_on": "Pythium aphanidermatum", "assay": "Up-regulation of CesA2 gene expression in Pythium aphanidermatum at 100 uM after 8 hr by qRT-PCR method relative to untreated control", "format": "functional"}, "[20]": {"tested_on": "Pythium aphanidermatum", "assay": "Up-regulation of CesA1 gene expression in Pythium aphanidermatum at 100 uM after 8 hr by qRT-PCR method relative to untreated control", "format": "functional"}, "[21]": {"tested_on": "Pythium aphanidermatum", "assay": "Antifungal activity against Pythium aphanidermatum assessed as inhibition of mycelial growth at 100 uM after 3 days", "format": "functional", "settings": "72 h, read-out: GI"}, "[22]": {"tested_on": "Pythium aphanidermatum", "assay": "Inhibition of germ tube elongation of Pythium aphanidermatum synchronised cytospores at 0.5 to 121 uM after 4 hr", "format": "functional, organism-based"}, "[23]": {"tested_on": "Pythium aphanidermatum", "assay": "Antifungal activity against Pythium aphanidermatum assessed as inhibition of mycelial growth at 10 uM after 3 days", "format": "functional, organism-based"}}, "note": "Active and inactive are the calls of the source. The calls are words filed in the database; no cut-off is given here."}
{"compound": "N#Cc1c(Cl)cccc1Cl", "note": "[DICHLOBENIL]", "values": [{"measurement": "Activity", "setting": "[1]", "result": "Active"}, {"measurement": "inhibition of growth at 200 µM", "setting": "[2]", "result": 40, "unit": "%"}, {"measurement": "Activity", "setting": "[3]", "result": "inactive"}, {"measurement": "inhibition of growth at 200 µM", "setting": "[4]", "result": 12, "unit": "%"}, {"measurement": "Activity", "setting": "[5]", "result": "Active"}, {"measurement": "Activity", "setting": "[6]", "result": "Active"}, {"measurement": "inhibition", "setting": "[7]", "result": "Active"}, {"measurement": "Activity", "setting": "[8]", "result": "inactive"}, {"measurement": "inhibition", "setting": "[9]", "result": "inactive"}, {"measurement": "Activity", "setting": "[10]", "result": "inactive"}, {"measurement": "Activity", "setting": "[11]", "result": "inactive"}, {"measurement": "inhibition", "setting": "[12]", "result": "inactive"}, {"measurement": "Activity", "setting": "[13]", "result": "Active"}, {"measurement": "Activity", "setting": "[14]", "result": "inactive"}, {"measurement": "Activity", "setting": "[15]", "result": "inactive"}, {"measurement": "inhibition at 500 µM", "setting": "[16]", "result": 18, "unit": "%"}, {"measurement": "Activity", "setting": "[17]", "result": "inactive"}, {"measurement": "Activity", "setting": "[18]", "result": "inactive"}]}
{"compound": "C#CCOc1ccc(CCNC(=O)C(OCC#C)c2ccc(Cl)cc2)cc1OC", "note": "(stereo not drawn) [MANDIPROPAMID]", "values": [{"measurement": "fold change (FC)", "setting": "[19]", "result": 2}, {"measurement": "fold change (FC)", "setting": "[20]", "result": 1.6}, {"measurement": "inhibition of growth at 100 µM", "setting": "[21]", "result": 34, "unit": "%"}, {"measurement": "inhibition", "setting": "[22]", "result": "inactive"}, {"measurement": "growth inhibition (GI)", "setting": "[23]", "result": "inactive"}]}
